Assay results from patent US7863271B2, “2-aminobenzoxazole carboxamides as 5HT3 modulators” (Albany Molecular Research, Inc., priority 2006, dated 2011).
Counter-ions that a name gives are not always drawn.

molecular target: T1, 5-HT3 (Homo sapiens, UniProt P46098); test: Compound affinity for the human 5-HT3 receptor (Assay B), SPA radioligand binding with [9-methyl-3H]BRL-43694; parameters: purchased Perkin Elmer; conditions: Assay B (method B unless otherwise annotated); read-out: 5-HT3 Ki
T1 sequence (P46098 24-478): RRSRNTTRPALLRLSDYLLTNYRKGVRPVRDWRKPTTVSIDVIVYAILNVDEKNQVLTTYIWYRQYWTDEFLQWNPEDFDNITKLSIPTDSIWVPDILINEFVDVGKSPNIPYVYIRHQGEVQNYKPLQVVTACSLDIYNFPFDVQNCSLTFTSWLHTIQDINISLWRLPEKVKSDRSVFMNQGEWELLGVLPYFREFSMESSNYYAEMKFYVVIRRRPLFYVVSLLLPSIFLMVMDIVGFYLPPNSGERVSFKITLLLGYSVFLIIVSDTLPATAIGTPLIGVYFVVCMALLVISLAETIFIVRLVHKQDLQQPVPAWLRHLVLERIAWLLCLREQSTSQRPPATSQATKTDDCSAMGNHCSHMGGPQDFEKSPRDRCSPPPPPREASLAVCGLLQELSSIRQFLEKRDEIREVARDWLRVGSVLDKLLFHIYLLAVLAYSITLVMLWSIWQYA
Experimental: Compound Affinity for the human 5-HT3 Receptor (Assay B)
The relative affinity of the various compounds for the human 5-HT3 receptor was measured in a radioligand binding assay, using a scintillation proximity assay (SPA) format. Test compounds were dissolved to 10 mM in 100% DMSO, then serially diluted at 10× assay concentrations in 100% DMSO in 96-well polypropylene plates and further diluted to 4× assay concentrations with the assay buffer. […] Binding reactions were set up in wells of PicoPlates-96 (Perkin Elmer) by adding consecutively 50 μL of each competing compound or buffer, SPA beads, the radioligand and 5-HT3 receptor membranes. After 60-min incubation at room temperature on a Nutator mixer, plates were centrifuged for 15 min at 1,500 rpm, followed by incubation in the dark for 30 min. Radioactivity was counted in the TopCount microplate counter (Perkin Elmer) for 5 min. […] Specific binding was determined by subtracting nonspecific binding from total binding. All experiments were performed in duplicate using ten concentrations of a competing ligand, with ondansetron included as a control in every run. IC50 values were determined from specific binding data using XLfit4.1 curve fitting software from IDBS Ltd. Ki values were then calculated from the Cheng-Prusoff equation.

Question: CN(C)CCNc1nc2c(C(=O)N[C@H]3C[C@H]4CCC[C@@H](C3)N4C)cccc2o1 [Example 32, Endo-N-(9-Methyl-9-azabicyclo[3.3.1]nonan-3-yl)-2-(2-(dimethylamino)ethylamino)benzoxazole-4-carboxamide Trihydrochloride] was tested. Which Ki did it give?
Answer: 234 nM

Question: How did the Ki turn out when Nc1nc2c(C(=O)NC3CN4CCC3CC4)ccc(F)c2o1 [Example 112, (S)—N-(quinulidin-8-yl)-2-amino-7-fluorobenzoxazole-4-carboxamide Hydrochloride] was run?
Answer: 33.3 nM

Question: How did the Ki turn out when C=CCN1C[C@H](C)N(c2nc3c(C(=O)NC4CC5CCCC(C4)N5C)cccc3o2)C[C@H]1C (relative stereo) [Example 147, Endo-N-(9-Methyl-9-azabicyclo[3.3.1]nonan-3-yl)-2-((2S*,5R*)-4-allyl-2,5-dimethylpiperazin-1-yl)benzoxazole-4-carboxamide Dihydrochloride] was run?
Answer: 10.8 nM

Question: Which Ki does the source give for C[C@H]1COC[C@H](C)N1c1nc2c(C(=O)NC3CC4COCC(C3)N4C)cccc2o1 (stereo partly drawn) [Example 88, Endo-N-(9-Methyl-3-oxa-9-azabicyclo[3.3.1]nonan-7-yl) 2-((3 S,5S)-3,5-dimethylmorpholino)benzoxazole-4-carboxamide Hydrochloride] here?
Answer: 19.9 nM

Question: How did the Ki turn out when Cc1cc(C(=O)NC2CN3CCC2CC3)c2nc(N)oc2c1 [Example 127, (S)—N-(quinulidin-8-yl)-2-amino-6-methylbenzoxazole-4-carboxamide Hydrochloride] was run?
Answer: 20 nM

Question: CN1[C@@H]2CCC[C@H]1C[C@@H](NC(=O)c1cccc3oc(N4CCNC(=O)C4)nc13)C2 [Example 86, Endo-N-(9-Methyl-9-azabicyclo[3.3.1]nonan-3-yl)-2-(3-oxopiperazine-1-yl)benzoxazole-4-carboxamide Hydrochloride] was tested. Which Ki did it give?
Answer: 66.2 nM

Question: For CC(C)C(=O)N1C[C@H](C)N(c2nc3c(C(=O)NC4CC5CCCC(C4)N5C)cccc3o2)[C@@H](C)C1 (stereo partly drawn) [Example 135, Endo-N-(9-methyl-9-azabicyclo[3.3.1]nonan-3-yl)-2-((2S,6S)-4-isobutyryl-2,6-dimethylpiperazin-1-yl)benzoxazole-4-carboxamide Hydrochloride], which Ki is on record?
Answer: 2 nM

Question: C[C@H]1CN(C(=O)C(C)(C)C)C[C@H](C)N1c1nc2c(C(=O)NC3CC4CCCC(C3)N4C)cccc2o1 (stereo partly drawn) [Example 130, Endo-N-(9-methyl-9-azabicyclo[3.3.1]nonan-3-yl)-2-((2S,6S)-2,6-dimethyl-4-pivaloylpiperazin-1-yl)benzoxazole-4-carboxamide Hydrochloride] was tested. Which Ki did it give?
Answer: 2.8 nM

Question: With C[C@H]1CN(C)C(=O)[C@H](C)N1c1nc2c(C(=O)NC3CC4CCCC(C3)N4C)cccc2o1 (stereo partly drawn) [Example 120, Endo-N-(9-methyl-9-azabicyclo[3.3.1]nonan-3-yl)-2-((2S,6S)-2,4,6-trimethyl-3-oxopiperazine-1-yl)benzoxazole-4-carboxamide Hydrochloride] as the compound, how does the Ki read?
Answer: 1.9 nM

Question: How did the Ki turn out when CC(C)[C@H]1CNCCN1c1nc2c(C(=O)NC3CC4CCCC(C3)N4C)cccc2o1 (stereo partly drawn) [Example 76, Endo-N-(9-Methyl-9-azabicyclo[3.3.1]nonan-3-yl)-2-((S)-2-isopropylpiperazin-1-yl)benzoxazole-4-carboxamide Hydrochloride] was run?
Answer: 9.8 nM

Question: How did the Ki turn out when COc1ccc(Nc2nc3c(C(=O)N[C@H]4C[C@H]5CCC[C@@H](C4)N5C)cccc3o2)cc1 [Example 59, Endo-N-(9-methyl-9-azabicyclo[3.3.1]nonan-3-yl)-2-(4-methoxyphenylamino)benzoxazole-4-carboxamide Hydrochloride] was run?
Answer: 7.6 nM

Question: Which Ki does the source give for CCOC(=O)N1C[C@H](C)N(c2nc3c(C(=O)NC4CC5CCCC(C4)N5C)cccc3o2)[C@@H](C)C1 (stereo partly drawn) [Example 144, Endo-N-(9-methyl-9-azabicyclo[3.3.1]nonan-3-yl)-2-((2S,6S)-4-(ethoxycarbonyl)-2,6-dimethylpiperazin-1-yl)benzoxazole-4-carboxamide Hydrochloride] here?
Answer: 1 nM

Question: Which Ki does the source give for C[C@H]1CN(C(=O)N2CCCCC2)C[C@H](C)N1c1nc2c(C(=O)NC3CC4CCCC(C3)N4C)cccc2o1 (stereo partly drawn) [Example 141, Endo-N-(9-methyl-9-azabicyclo[3.3.1]nonan-3-yl)-2-((2S,6S)-2,6-dimethyl-4-(piperidine-1-carbonyl)piperazin-1-yl)benzoxazole-4-carboxamide hydrochloride] here?
Answer: 1.8 nM

Question: CN1[C@@H]2CCC[C@H]1C[C@@H](NC(=O)c1cccc3oc(NCCCO)nc13)C2 [Example 40, Endo-N-(9-Methyl-9-azabicyclo[3.3.1]nonan-3-yl)-2-(3-hydroxypropylamino)benzoxazole-4-carboxamide Hydrochloride] was tested. Which Ki did it give?
Answer: 7.8 nM

Question: For C[C@H]1CN(C(=O)C2CCCCC2)C[C@H](C)N1c1nc2c(C(=O)NC3CC4CCCC(C3)N4C)cccc2o1 (stereo partly drawn) [Example 132, Endo-N-(9-methyl-9-azabicyclo[3.3.1]nonan-3-yl)-2-((2S,6S)-4-(cyclohexanecarbonyl)-2,6-dimethylpiperazin-1-yl)benzoxazole-4-carboxamide Hydrochloride], which Ki is on record?
Answer: 1.9 nM

Question: Which Ki does the source give for CN(C)c1nc2c(C(=O)N[C@H]3C[C@H]4CCC[C@@H](C3)N4C)cccc2o1 [Example 7, Endo-N-(9-Methyl-9-azabicyclo[3.3.1]non-3-yl)-2-(dimethylamino)benzoxazole-4-carboxamide Hydrochloride] here?
Answer: 6.1 nM

Question: How did the Ki turn out when Nc1nc2c(C(=O)NC3CN4CCC3CC4)c(F)ccc2o1 [Example 139, (S)—N-(quinulidin-8-yl)-2-amino-5-fluorobenzoxazole-4-carboxamide Hydrochloride] was run?
Answer: 67.4 nM

Question: C[C@H]1CN(C(=O)C2CCCC2)C[C@H](C)N1c1nc2c(C(=O)NC3CC4CCCC(C3)N4C)cccc2o1 (stereo partly drawn) [Example 133, Endo-N-(9-methyl-9-azabicyclo[3.3.1]nonan-3-yl)-2-((2S,6S-4-(cyclopentanecarbonyl)-2,6-dimethylpiperazin-1-yl)benzoxazole-4-carboxamide Hydrochloride] was tested. Which Ki did it give?
Answer: 1.8 nM

Question: With CCC[C@H]1COCCN1c1nc2c(C(=O)NC3CC4CCCC(C3)N4C)cccc2o1 (stereo partly drawn) [Example 66, Endo-N-(9-Methyl-9-azabicyclo[3.3.1]nonan-3-yl)-2-((S)-3-propylmorpholino)benzoxazole-4-carboxamide Hydrochloride] as the compound, how does the Ki read?
Answer: 4.1 nM

Question: CN1CCN(c2nc3c(C(=O)N[C@H]4C[C@H]5CCC[C@@H](C4)N5C)cc(Cl)cc3o2)CC1 [Example 58, Endo-N-(9-methyl-9-azabicyclo[3.3.1]nonan-3-yl)-6-chloro-2-(4-methylpiperazin-1-yl)benzoxazole-4-carboxamide Hydrochloride] was tested. Which Ki did it give?
Answer: 11.9 nM

Question: Which Ki does the source give for CN1[C@@H]2CCC[C@H]1C[C@@H](NC(=O)c1cccc3oc(N4CCS(=O)(=O)CC4)nc13)C2 [Example 82, Endo-N-(9-Methyl-9-azabicyclo[3.3.1]nonan-3-yl)-2-(thiomorpholine 1,1-dioxide)benzoxazole-4-carboxamide Hydrochloride] here?
Answer: 132 nM

Question: For CC(C)[C@H]1COCCN1c1nc2c(C(=O)NC3CC4CCCC(C3)N4C)cccc2o1 (stereo partly drawn) [Example 48, Endo-N-(9-Methyl-9-azabicyclo[3.3.1]nonan-3-yl)-2-((S)-3-isopropylmorpholino)benzoxazole-4-carboxamide Hydrochloride], which Ki is on record?
Answer: 6 nM

Question: With C[C@H]1CN(CC(F)(F)F)C[C@H](C)N1c1nc2c(C(=O)NC3CC4CCCC(C3)N4C)cccc2o1 (stereo partly drawn) [Example 137, Endo-N-(9-methyl-9-azabicyclo[3.3.1]nonan-3-yl)-2-((2S,6S)-2,6-dimethyl-4-(2,2,2-trifluoroethyl)piperazin-1-yl)benzoxazole-4-carboxamide Hydrochloride] as the compound, how does the Ki read?
Answer: 1.8 nM

Question: O=C(N[C@@H]1CN2CCC1CC2)c1cccc2oc(Nc3ccccc3)nc12 [Example 6, (S)—N-(quinuclidine-8-yl)-2-(phenylamino) benzoxazole-4-carboxamide Hydrochloride] was tested. Which Ki did it give?
Answer: 8.1 nM

Question: With C[C@@H]1CNCCN1c1nc2c(C(=O)N[C@H]3C[C@H]4CCC[C@@H](C3)N4C)cccc2o1 [Example 41b, Endo-N-(9-Methyl-9-azabicyclo[3.3.1]nonan-3-yl)-2-[(R)-2-methylpiperazin-1-yl]benzoxazole-4-carboxamide Hydrochloride] as the compound, how does the Ki read?
Answer: 125 nM

Question: C[C@H]1COCCN1c1nc2c(C(=O)NC3CC4CCCC(C3)N4C)cc(Cl)cc2o1 (stereo partly drawn) [Example 106, Endo-6-Chloro-N-(9-methyl-9-azabicyclo[3.3.1]nonan-3-yl)-2-((S)-3-methylmorpholino)benzoxazole-4-carboxamide Hydrochloride] was tested. Which Ki did it give?
Answer: 12.6 nM

Question: With O=C(NC1CN2CCC1CC2)c1cccc2oc(NCC(F)(F)F)nc12 (stereo not shown) [Example 109, Hydrochloride] as the compound, how does the Ki read?
Answer: 47.9 nM

Question: CN1[C@@H]2CCC[C@H]1C[C@@H](NC(=O)c1cccc3oc(N4CCNCC4)nc13)C2 [Example 21, Endo-N-(9-Methyl-9-azabicyclo[3.3.1]non-3-yl)-2-(piperazin-1-yl)benzoxazole-4-carboxamide Dihydrochloride] was tested. Which Ki did it give?
Answer: 74.6 nM
